Experimental data from patent US20040014047A1, “Antisense modulation of LIM domain kinase 1 expression” (Isis Pharmaceuticals Inc., priority 2002, published 2004).
Strand notation (5' to 3'): a small letter for the sugar, then the base; units joined by * are phosphorothioate-linked, units joined directly phosphodiester-linked; [ ] holds rarer units or linkages, { } end groups; capitals alone tell only the bases. e = 2'-O-(2-methoxyethyl) (MOE); [5mC] = 5-methylcytosine; d = 2'-deoxy (DNA)

Test system: human LIM domain kinase 1 mRNA
Experiment: Antisense inhibition of human LIM domain kinase 1 mRNA levels, quantitative real-time PCR, A549 cells (screen)
Format: cell-based
Details: quantitative real-time PCR, averages from two experiments, screening concentration not given (50 nM to 300 nM used herein)
Procedure: When cells reached 70% confluency, they were treated with oligonucleotide. […] Cells were harvested 16-24 hours after oligonucleotide treatment.
Vacuum was applied for 1 minute.
PCR reagents were obtained from Invitrogen Corporation, (Carlsbad, Calif.).
Total RNA is quantified using RiboGreenTM RNA quantification reagent from Molecular Probes.
Probes and primers to human LIM domain kinase 1 were designed to hybridize to a human LIM domain kinase 1 sequence, using published sequence information (GenBank accession number D26309.1, incorporated herein as SEQ ID NO:4). For human LIM domain kinase 1 the PCR primers were: forward primer: […] (SEQ ID NO: 5) reverse primer: […] (SEQ ID NO: 6) and the PCR probe was: FAM-[…]-TAMRA (SEQ ID NO: 7) where FAM is the fluorescent dye and TAMRA is the quencher dye.
All cytidine residues are 5-methylcytidines. […] Data are averages from two experiments in which A549 cells were treated with the oligonucleotides of the present invention. […] If present, “N.D.” indicates “no data”.

Row | Substance | % INHIB (inhibition of human LIM domain kinase 1 mRNA levels) [%]
1 | 206161 (eA*eA*e[5mC]*e[5mC]*eT*d[5mC]*dA*dT*dG*d[5mC]*dA*d[5mC]*dT*d[5mC]*dG*eA*e[5mC]*eG*eG*eG; antisense) [compound 206161] | 82
2 | 206162 (e[5mC]*eT*eG*e[5mC]*eT*dG*d[5mC]*dA*dG*d[5mC]*d[5mC]*dG*dT*dA*dT*eG*eA*eA*eA*eA; antisense) [compound 206162] | 74
3 | 206163 (eG*eT*e[5mC]*eA*eA*d[5mC]*d[5mC]*dT*d[5mC]*dA*dT*dG*d[5mC]*dA*d[5mC]*eT*e[5mC]*eG*eA*e[5mC]; antisense) [compound 206163] | 79
4 | 206164 (e[5mC]*eA*eG*eG*eT*dG*d[5mC]*dA*dA*d[5mC]*dA*dA*dA*dG*dT*eA*eG*e[5mC]*eG*eT; antisense) [compound 206164] | 75
5 | 206165 (e[5mC]*e[5mC]*e[5mC]*eT*e[5mC]*d[5mC]*dA*dG*dG*dT*dG*d[5mC]*dA*dA*d[5mC]*eA*eA*eA*eG*eT) [compound 206165] | 22
6 | 206166 (eT*eT*e[5mC]*eT*eT*d[5mC]*d[5mC]*d[5mC]*dT*d[5mC]*d[5mC]*dA*dG*dG*dT*eG*e[5mC]*eA*eA*e[5mC]; antisense) [compound 206166] | 70
7 | 206167 (eA*eT*eA*e[5mC]*eG*dT*dT*d[5mC]*dT*dT*d[5mC]*d[5mC]*d[5mC]*dT*d[5mC]*e[5mC]*eA*eG*eG*eT; antisense) [compound 206167] | 85
8 | 206168 (eT*e[5mC]*eT*e[5mC]*e[5mC]*d[5mC]*dA*dT*dA*d[5mC]*dG*dT*dT*d[5mC]*dT*eT*e[5mC]*e[5mC]*e[5mC]*eT; antisense) [compound 206168] | 36
9 | 206169 (e[5mC]*eT*eT*e[5mC]*e[5mC]*dT*d[5mC]*dT*d[5mC]*d[5mC]*d[5mC]*dA*dT*dA*d[5mC]*eG*eT*eT*e[5mC]*eT; antisense) [compound 206169] | 67
10 | 206170 (eG*e[5mC]*eA*eA*e[5mC]*dT*d[5mC]*dG*d[5mC]*dT*dT*d[5mC]*d[5mC]*dT*dT*e[5mC]*e[5mC]*eT*e[5mC]*eT; antisense) [compound 206170] | 43
11 | 206171 (eA*eG*eG*eG*e[5mC]*d[5mC]*dT*dG*dG*dA*dG*dG*dT*dA*d[5mC]*eT*eG*eG*e[5mC]*e[5mC]; antisense) [compound 206171] | 83
12 | 206172 (eT*e[5mC]*e[5mC]*eT*eT*d[5mC]*dT*dT*dG*d[5mC]*dA*dG*dA*dA*dG*eA*eG*e[5mC]*eT*eG; antisense) [compound 206172] | 76
13 | 206173 (eA*eG*eT*eA*eG*dT*d[5mC]*d[5mC]*dT*dT*d[5mC]*dT*dT*dG*d[5mC]*eA*eG*eA*eA*eG; antisense) [compound 206173] | 71
14 | 206174 (antisense eG*eG*e[5mC]*e[5mC]*e[5mC]*dA*dG*dT*dA*dG*dT*d[5mC]*d[5mC]*dT*dT*e[5mC]*eT*eT*eG*e[5mC]) [compound 206174] | 87
15 | 206175 (antisense eT*eA*eG*e[5mC]*eG*dG*dG*d[5mC]*d[5mC]*d[5mC]*dA*dG*dT*dA*dG*eT*e[5mC]*e[5mC]*eT*eT) [compound 206175] | 83
16 | 206176 (antisense e[5mC]*eG*e[5mC]*e[5mC]*eA*dT*dA*dG*d[5mC]*dG*dG*dG*d[5mC]*d[5mC]*d[5mC]*eA*eG*eT*eA*eG) [compound 206176] | 87
17 | 206177 (antisense eA*eG*e[5mC]*eT*eT*dG*dG*dA*dG*dT*dG*d[5mC]*dT*d[5mC]*d[5mC]*eA*e[5mC]*e[5mC]*eA*eG) [compound 206177] | 86
18 | 206178 (antisense eA*eG*eT*eA*e[5mC]*dA*dG*d[5mC]*dT*dT*dG*dG*dA*dG*dT*eG*e[5mC]*eT*e[5mC]*e[5mC]) [compound 206178] | 69
19 | 206179 (antisense eG*e[5mC]*eA*eG*eT*dG*d[5mC]*d[5mC]*d[5mC]*dG*d[5mC]*dA*dG*dT*dA*e[5mC]*eA*eG*e[5mC]*eT) [compound 206179] | 75
20 | 206180 (antisense eA*e[5mC]*eA*eT*e[5mC]*dT*dG*dG*dG*d[5mC]*dT*d[5mC]*dA*dT*dG*e[5mC]*eA*eG*e[5mC]*e[5mC]) [compound 206180] | 77
21 | 206181 (antisense eT*e[5mC]*eT*eT*e[5mC]*dA*d[5mC]*dA*dT*d[5mC]*dT*dG*dG*dG*d[5mC]*eT*e[5mC]*eA*eT*eG) [compound 206181] | 54

Row | Substance | % INHIB (inhibition of human LIM domain kinase 1 mRNA levels) [%]
22 | 206182 (antisense eG*eG*eA*eA*eT*dT*d[5mC]*dT*dT*d[5mC]*dA*d[5mC]*dA*dT*d[5mC]*eT*eG*eG*eG*e[5mC]) [compound 206182] | 86
23 | 206183 (antisense eT*eG*eG*eA*eT*dG*dG*dA*dA*dT*dT*d[5mC]*dT*dT*d[5mC]*eA*e[5mC]*eA*eT*e[5mC]) [compound 206183] | 79
24 | 206184 (antisense eA*eT*eT*eT*e[5mC]*d[5mC]*dA*dA*dG*dA*dT*d[5mC]*d[5mC]*dG*dG*eT*e[5mC]*eT*e[5mC]*e[5mC]) [compound 206184] | 74
25 | 206185 (antisense eG*e[5mC]*e[5mC]*eA*eT*dT*dG*dA*dT*dT*dT*d[5mC]*d[5mC]*dA*dA*eG*eA*eT*e[5mC]*e[5mC]) [compound 206185] | 86
26 | 206186 (antisense eG*eG*e[5mC]*eG*eT*dG*d[5mC]*d[5mC]*dA*dT*dT*dG*dA*dT*dT*eT*e[5mC]*e[5mC]*eA*eA) [compound 206186] | 72
27 | 206187 (antisense eT*e[5mC]*eA*eG*e[5mC]*dT*dG*dG*dA*dG*d[5mC]*dA*dG*dG*d[5mC]*eG*eG*e[5mC]*eT*eG) [compound 206187] | 60
28 | 206188 (antisense eT*e[5mC]*eG*eA*eG*dG*dG*dT*d[5mC]*dA*dG*d[5mC]*dT*dG*dG*eA*eG*e[5mC]*eA*eG) [compound 206188] | 71
29 | 206189 (antisense eG*eT*eT*eT*e[5mC]*dT*dG*d[5mC]*d[5mC]*dG*dG*dG*d[5mC]*dA*dG*eA*eG*e[5mC]*eT*eG) [compound 206189] | 81
30 | 206190 (antisense eG*eA*e[5mC]*eA*eG*dG*dT*dT*dT*d[5mC]*dT*dG*d[5mC]*d[5mC]*dG*eG*eG*e[5mC]*eA*eG) [compound 206190] | 88
31 | 206191 (antisense e[5mC]*eT*e[5mC]*eA*eA*dG*dA*d[5mC]*dA*dG*dG*dT*dT*dT*d[5mC]*eT*eG*e[5mC]*e[5mC]*eG) [compound 206191] | 62
32 | 206192 (antisense eA*eG*e[5mC]*eT*e[5mC]*d[5mC]*dT*d[5mC]*dA*dA*dG*dA*d[5mC]*dA*dG*eG*eT*eT*eT*e[5mC]) [compound 206192] | 54
33 | 206193 (antisense eA*eG*eG*eT*e[5mC]*d[5mC]*dT*dT*dG*d[5mC]*dG*d[5mC]*dT*dG*dG*eG*eA*eG*eG*e[5mC]) [compound 206193] | 67
34 | 206194 (antisense eG*eA*e[5mC]*e[5mC]*e[5mC]*dA*dG*dG*dT*d[5mC]*d[5mC]*dT*dT*dG*d[5mC]*eG*e[5mC]*eT*eG*eG) [compound 206194] | 41
35 | 206195 (antisense eT*e[5mC]*eA*e[5mC]*eG*dG*dT*dG*dT*dG*dT*d[5mC]*dA*d[5mC]*d[5mC]*eT*eT*eG*eA*eT) [compound 206195] | 73
36 | 206196 (antisense eA*e[5mC]*e[5mC]*eT*eT*d[5mC]*dA*d[5mC]*d[5mC]*dT*d[5mC]*d[5mC]*dT*dT*dG*eA*eG*eG*eA*eA) [compound 206196] | 47
37 | 206197 (antisense eG*e[5mC]*eA*eT*e[5mC]*dG*d[5mC]*dA*dT*dG*dA*d[5mC]*d[5mC]*dT*dT*e[5mC]*eA*e[5mC]*e[5mC]*eT) [compound 206197] | 71
38 | 206198 (antisense eT*e[5mC]*e[5mC]*eA*eG*dG*d[5mC]*dA*dT*d[5mC]*dG*d[5mC]*dA*dT*dG*eA*e[5mC]*e[5mC]*eT*eT) [compound 206198] | 86
39 | 206199 (antisense eT*eG*eT*e[5mC]*e[5mC]*dA*dT*dG*d[5mC]*dT*d[5mC]*dT*dT*dG*dA*eT*eG*eA*eT*eG) [compound 206199] | 68
40 | 206200 (antisense e[5mC]*eT*eG*eG*e[5mC]*dT*dG*dT*d[5mC]*d[5mC]*dA*dT*dG*d[5mC]*dT*e[5mC]*eT*eT*eG*eA) [compound 206200] | 76
41 | 206201 (antisense eA*eG*eG*eT*eA*dG*dG*d[5mC]*d[5mC]*dA*dT*d[5mC]*d[5mC]*d[5mC]*dT*eG*eA*eT*eG*e[5mC]) [compound 206201] | 74
